Experimental data: patent US20250249000A1, “SIK3 INHIBITORS FOR TREATING DISEASES RESISTANT TO DEATH RECEPTOR SIGNALLING” (IOMX THERAPEUTICS AG, priority 2022, published 2025)
“Also recorded” adds a separate entry of the source.

How the values were obtained:
Assay type in all cases: cell-based
[1] = system: murine triple negative breast cancer cell line EMT6; experiment: Death receptor 5 antibody (MD5-1) induced apoptosis in EMT6 cells in combination with SIK3 inhibitor; conditions: 0.8 ng/ml murine death receptor 5 targeting antibody (clone MD5-1) plus E9 vs DMSO control, caspase 3/7 at 8 hours, annexin V and cytotox red at 24 hours, FIG. 4
Method: (§1) The experiments were done briefly as follows: murine colorectal carcinoma cell line MC38, murine triple negative breast cancer cell line EMT6 and human melanoma tumor cell line A375 were treated with 1 ng/ml TNF, 0.8 ng/ml murine death receptor 5 targeting antibody (clone MD5-1) and 10 ng/ml complexed TRAIL, respectively, or with the appropriate negative controls, in combination with the SIK3 inhibitor E9 and an associated DMSO control. The onset of tumor cell death was monitored 8 hours after treatment initiation by analyzing cleavage of effector caspases 3/7 using Caspase-Glo® assay from Promega according to manufacturer's protocol. In addition, 24 hours after treatment initiation, the increase in extracellular phosphatidylserine expression was measured by annexin V expression level and cell membrane disruption by cytotox red staining, both according to manufacturer's protocol.

[2] = system: murine colorectal carcinoma cell line MC38; experiment: TNF induced apoptosis in MC38 cells in combination with SIK3 inhibitor; conditions: 1 ng/ml TNF plus E9 vs DMSO control, caspase 3/7 at 8 hours, annexin V and cytotox red at 24 hours, FIG. 3
Method: as §1

[3] = system: human melanoma tumor cell line A375; experiment: Complexed TRAIL induced apoptosis in A375 cells in combination with SIK3 inhibitor; conditions: 10 ng/ml complexed TRAIL plus E9 vs DMSO control, caspase 3/7 at 8 hours, annexin V and cytotox red at 24 hours, FIG. 5
Method: as §1

Cc1nc(Nc2ncc(C(=O)Nc3c(CF)csc3Cl)s2)cc(N2CCN(C)CC2)n1 [Compound E9, N-(2-chloro-4-(fluoromethyl)thiophen-3-yl)-2-((2-methyl-6-(4-methylpiperazin-1-yl)pyrimidin-4-yl)amino)thiazole-5-carboxamide]
enhancement of death receptor induced apoptosis (caspase-3/7 cleavage, annexin V, cytotox red) [1]: potent enhancement of death receptor induced apoptosis; also recorded: enhanced death receptor mediated apoptosis
enhancement of death receptor induced apoptosis (caspase-3/7 cleavage, annexin V, cytotox red) [2]: potent enhancement of death receptor induced apoptosis; also recorded: enhanced death receptor mediated apoptosis
enhancement of death receptor induced apoptosis (caspase-3/7 cleavage, annexin V, cytotox red) [3]: enhanced death receptor mediated apoptosis; also recorded: potent enhancement of death receptor induced apoptosis
